Positions of bridges follow the written chain, without caps; N, C: chain ends. Residues, ends and D or L forms follow the SMILES beside them. Chains are numbered I, II in the order given. No end group written: not given here. *: point of attachment. Chenodeoxycholyl = C[C@H](CCC(=O)*)[C@H]1CC[C@H]2[C@@H]3[C@H](O)C[C@@H]4C[C@H](O)CC[C@]4(C)[C@H]3CC[C@]12C; Cholyl = C[C@H](CCC(=O)*)[C@H]1CC[C@H]2[C@@H]3[C@H](O)C[C@@H]4C[C@H](O)CC[C@]4(C)[C@H]3C[C@H](O)[C@]12C
Key:
[1] = test system: JIMT-1 breast cancer cells; test: Cytotoxicity of steroid acid-peptide conjugates in JIMT-1 cells; type: cell-based; details: JIMT-1, FIGS. 21A and 21B
Description: (§1) Apoptosis analysis was conducted by flow-cytometry. Briefly, target cells were first treated then washed. Treated cells were then re-suspended in Annexin-V staining buffer prior to staining with Annexin-V and propidium iodine (PI). Fifteen minutes later, cells were washed prior to analysis using BD FACS™ Diva on CANTOII™.
50 mg of CDCA-C-SV40 monomers (or other steroid acid-peptide monomers) were resuspended in 200-500 μL of DMSO. 10 eq of N,N-Diisopropylethylamine (DIPEA) was added to the mixture and incubated in a thermomixer at 37° C. with agitation (1000 rpm) overnight, enabling dimerization of the monomers via their N-terminal cysteine thiol groups to produce (CDCA-C-SV40)2 or other dimers. The samples were then analyzed by UPLC-MS to evaluate dimer formation efficiency. Cell toxicity was evaluated via a Cell Toxicity assay (PrestoBlue™).

EL4 lymphoma = test: EL4 tumor model in mice; type: in vivo, mouse; details: highest tested dose (190 μM), every 48 h, total of 5 injections
Description: Female C57BL/6 mice (n=10/group) received a SC injection of 5×10^5 EL4 cells at Day 0. […] For all depletion studies, antibodies were injected via the intraperitoneal route at days 0, 3 and 6 at a concentration of 200 μg/injection. Tumor size and animal survival for all of the above listed in vivo studies was followed thereafter using a digital caliber until reaching endpoints (ulceration or a tumor volume ≥1000 mm^3).

EL4 lymphoma cells = test: Apoptosis analysis / kill curve by flow cytometry (Annexin-V, PI); type: cell-based, mouse
Description: as §1

[2] = test system: mesenchymal stromal cells (MSCs); test: Apoptosis analysis by flow cytometry on MSCs; type: cell-based; details: 190 μM
Description: as §1

macrophages = test: Apoptosis analysis by flow cytometry on macrophages; type: cell-based; details: 190 μM
Description: as §1

[3] = test system: bone marrow-derived dendritic cells (DCs); test: Apoptosis analysis by flow cytometry on bone marrow-derived dendritic cells; type: cell-based, mouse; details: 190 μM
Description: Mouse bone marrow derived DCs (BMDCs) were generated by flushing the whole marrow from mouse femurs using RPMI™ 1640 supplemented with 10% fetal bovine serum (FBS), 50 U/mL Penicillin-Streptomycin, 2 mM L-glutamine, 10 mM HEPES, 1% MEM Non-essential Amino Acids, 1 mM Sodium Pyruvate, 0.5 mM β-mercaptoethanol. Following red blood cell lysis, cells were then cultured in media supplemented with 50 ng/mL murine recombinant GM-CSF. The media was changed on days 2, 4, 6 and 8. On day 9, the media was replaced to include recombinant murine GM-CSF and LPS from Escherichia coli 0111 (1 ng/mL) to stimulate DC maturation. Mature DCs were assessed by flow cytometry for their surface expression of CD3, CD19, NK1.1, CD11c, CD80, CD86, and I-A^b.
as §1

[4] = test system: EL4, B16, E0771, CT-26, 4T1, MBA-MD-468, H460 and A549 cancer cells; test: Annexin-V cytotoxicity screen of bile acid-SV40 conjugates on eight tumor cell lines; type: cell-based; details: 190 μM, all eight tumor cell lines
Description: Annexin-V staining percentage after treatment with different bile acid-SV40 conjugates (190 μM) is shown relative to live cancer cells (i.e., PBS treated cancer cells) by flow cytometry. Cancer cell lines tested were EL4 lymphoma, B16 melanoma, E0771 breast cancer, CT-26 colon carcinoma, 4T1 breast cancer, MBA-MD-468 triple-negative breast cancer, human H460 lung cancer, and human A549 lung cancer. […] SV40 alone was also tested as a negative control.
as §1

[5] = test system: wild-type MSC and B3Z reporter system; test: Antigen cross-presentation, wild-type MSC and B3Z reporter system; details: 50 μM, sample stored 3 months at −80° C. (thawed)

Compound: CC(C)[C@H](NC(=O)[C@H](CCCCN)NC(=O)CNC(=O)[C@H](Cc1ccc(O)cc1)NC(=O)CNC(=O)[C@H](CO)NC(=O)[C@H](CSSC[C@H](NC(=O)CC[C@@H](C)[C@H]1CC[C@H]2[C@@H]3[C@H](O)C[C@@H]4C[C@H](O)CC[C@]4(C)[C@H]3CC[C@]12C)C(=O)N[C@@H](CO)C(=O)NCC(=O)N[C@@H](Cc1ccc(O)cc1)C(=O)NCC(=O)N[C@@H](CCCCN)C(=O)N[C@H](C(=O)N[C@@H](CO)C(=O)N[C@@H](CCCNC(=N)N)C(=O)N[C@@H](CCCNC(=N)N)C(=O)NCC(=O)NCC(=O)N[C@@H](Cc1c[nH]cn1)C(=O)N[C@@H](CCC(N)=O)C(=O)N[C@@H](CC(N)=O)C(=O)N[C@@H](CO)C(=O)N[C@@H](Cc1ccc(O)cc1)C(=O)N[C@@H](CCCCN)C(=O)N1CCC[C@H]1C(=O)N[C@@H](Cc1ccc(O)cc1)C(=O)O)C(C)C)NC(=O)CC[C@@H](C)[C@H]1CC[C@H]2[C@@H]3[C@H](O)C[C@@H]4C[C@H](O)CC[C@]4(C)[C@H]3CC[C@]12C)C(=O)N[C@@H](CO)C(=O)N[C@@H](CCCNC(=N)N)C(=O)N[C@@H](CCCNC(=N)N)C(=O)NCC(=O)NCC(=O)N[C@@H](Cc1c[nH]cn1)C(=O)N[C@@H](CCC(N)=O)C(=O)N[C@@H](CC(N)=O)C(=O)N[C@@H](CO)C(=O)N[C@@H](Cc1ccc(O)cc1)C(=O)N[C@@H](CCCCN)C(=O)N1CCC[C@H]1C(=O)N[C@@H](Cc1ccc(O)cc1)C(=O)O [(CDCA-C-hnRNP D NLS)2] (I: Chenodeoxycholyl-CSGYGKVSRRGGHQNSYKPY-OH / II: Chenodeoxycholyl-CSGYGKVSRRGGHQNSYKPY-OH; disulfide I:1-II:1)
- cytotoxicity of dimerized version versus monomer [1]: enhancement of cytotoxicity

Compound: CSCC[C@H](NC(=O)[C@H](CS)NC(=O)CC[C@@H](C)[C@H]1CC[C@H]2[C@@H]3[C@H](O)C[C@@H]4C[C@H](O)CC[C@]4(C)[C@H]3C[C@H](O)[C@]12C)C(=O)NCC(=O)N[C@@H](CCCNC(=N)N)C(=O)N[C@H](C(=O)N[C@@H](CCCNC(=N)N)C(=O)N[C@H](C(=O)N[C@@H](CCCCN)C(=O)N[C@H](C(=O)N[C@H](C(=O)N[C@@H](CCCCN)C(=O)N[C@@H](CCCCN)C(=O)N[C@@H](C)C(=O)N[C@@H](C)C(=O)NCC(=O)NCC(=O)O)C(C)C)[C@@H](C)O)[C@@H](C)O)C(C)C [CA-C-NLS1 RPS17] (Cholyl-CMGRVRTKTVKKAAGG-OH; N-terminus and C-terminus assumed)
- survival at day 40 (EL4 lymphoma): 20%
- tumor growth (EL4 lymphoma): significantly delayed tumor growth

Compound: CC[C@H](C)[C@H](NC(=O)[C@H](CCCNC(=N)N)NC(=O)[C@H](CCCCN)NC(=O)[C@H](CCSC)NC(=O)[C@H](CC(C)C)NC(=O)[C@H](Cc1c[nH]cn1)NC(=O)[C@@H](NC(=O)[C@@H](NC(=O)[C@H](Cc1ccc(O)cc1)NC(=O)CNC(=O)[C@H](C)NC(=O)[C@@H](NC(=O)[C@H](CCCCN)NC(=O)[C@H](CC(N)=O)NC(=O)[C@H](CCCNC(=N)N)NC(=O)[C@H](CC(C)C)NC(=O)[C@H](CCCCN)NC(=O)[C@H](CCCCN)NC(=O)[C@H](CO)NC(=O)[C@H](CS)NC(=O)CC[C@@H](C)[C@H]1CC[C@H]2[C@@H]3[C@H](O)C[C@@H]4C[C@H](O)CC[C@]4(C)[C@H]3C[C@H](O)[C@]12C)[C@@H](C)CC)C(C)C)[C@@H](C)O)C(=O)O [CA-C-NLS3 RPS17] (Cholyl-CSKKLRNKIAGYVTHLMKRI-OH; N-terminus and C-terminus assumed)
- survival at day 40 (EL4 lymphoma): 20%
- tumor growth (EL4 lymphoma): significantly delayed tumor growth

Compound: CC(C)[C@H](NC(=O)[C@H](CCCCN)NC(=O)[C@H](CCCNC(=N)N)NC(=O)[C@H](CCCCN)NC(=O)[C@H](CCCCN)NC(=O)[C@H](CCCCN)NC(=O)[C@@H]1CCCN1C(=O)CNC(=O)[C@H](Cc1ccc(O)cc1)NC(=O)CNC(=O)[C@H](CS)NC(=O)CC[C@@H](C)[C@H]1CC[C@H]2[C@@H]3[C@H](O)C[C@@H]4C[C@H](O)CC[C@]4(C)[C@H]3C[C@H](O)[C@]12C)C(=O)NCC(=O)NCC(=O)O [CA-C-SV40] (Cholyl-CGYGPKKKRKVGG-OH)
- cytotoxicity of Cholic acid-NLS conjugates (EL4 lymphoma cells; 190 μM, EL4, FIG. 6): notably higher
- EC50 (EL4 lymphoma cells; EL4 lymphoma cells, flow cytometry, read-out: EC50 (cell death / kill curve)): 95.9 µM
- apoptosis in normal or healthy cells [2]: induce apoptosis
- apoptosis in normal or healthy cells (macrophages): induce apoptosis
- survival at day 40 (EL4 lymphoma): 60%
- apoptosis in normal or healthy cells [3]: induce apoptosis

Compound: CC(C)[C@H](NC(=O)[C@H](CCCCN)NC(=O)[C@H](CCCNC(=N)N)NC(=O)[C@H](CCCCN)NC(=O)[C@H](CCCCN)NC(=O)[C@H](CCCCN)NC(=O)[C@@H]1CCCN1C(=O)CNC(=O)[C@H](Cc1ccc(O)cc1)NC(=O)CNC(=O)[C@H](CS)NC(=O)CC[C@@H](C)[C@H]1CC[C@H]2[C@@H]3[C@H](O)C[C@@H]4C[C@H](O)CC[C@]4(C)[C@H]3CC[C@]12C)C(=O)NCC(=O)NCC(=O)O [CDCA-C-SV40] (Chenodeoxycholyl-CGYGPKKKRKVGG-OH)
- cytotoxic activity [4]: 100%

Compound: CC(=O)N[C@@H](CS)C(=O)O [NAC, N-acetylcysteine, reference compound]
- rescue from CA-C-SV40-triggered cell death (EL4 lymphoma cells; CA-C-SV40 at EC50 dose): completely blocked apoptosis

Compound: CA-C-hnRNPA1: cholic acid conjugated to C-hnRNPA1 M9 NLS peptide (SEQ ID NO: 4) (Cholyl-CSNFGPMKGGNFGGRSSGPY)
- antigen presentation [5]: reduced antigen presentation activity

Compound: SV40 NLS: nuclear localization signal from SV40 large T-antigen (PKKKRKV; SEQ ID NO: 2), tested alone as negative control [reference compound]
- cytotoxic activity (EL4 lymphoma cells): did not exhibit any cytotoxic activity

Source: patent US20260207765A1, “COVALENTLY-MODIFIED STEROID ACID-PEPTIDES HAVING ENHANCED STABILITY AND/OR BIOLOGICAL ACTIVITY” (priority 2022, published 2026)
